Source: the METLIN SMRT retention time set (Domingo-Almenara et al. 2019)

Assay: gradient 5% acetonitrile 3 min, to 50% in 2 min, to 85% in 15 min, held 3 min, 100 µL/min
Conditions: column: Zorbax Extend-C18 2.1 x 50 mm; eluents: water / acetonitrile, 0.1% formic acid
In short: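 Using water and acetonitrile that each contained 0.1% formic acid, mixtures of ~100 pure standards were separated at 100 μL/min on a Zorbax Extend-C18 column (2.1 × 50 mm, 1.8 μm). The HPLC fed a quadrupole time-of-flight mass spectrometer working in positive and negative ionization mode, with dead and dwell volumes of 40 μL and 900 μL. Data were acquired over 3 months. Retention time was read from computationally picked adduct peaks after manual inspection of each.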

Compound	RP-LC retention time [s]
CC(C)NC(=O)C1(C)CC(c2ccccc2)=NO1 (stereo unspecified)	799
CCOc1ccc2ncc(S(=O)(=O)c3ccc(Cl)cc3)c(N3CCN(CC)CC3)c2c1	685
O=C(c1ccc2c(c1)nnn2Cc1ccccc1)N1CCN(c2ncccn2)CC1	766
CCOC(=O)c1ccc(NC(=O)C2CCN(C(=O)C3Sc4ccccc4NC3=O)CC2)cc1 (stereo unspecified)	805
COc1ccc(N2C(=O)CCC(C(=O)NC3CCCCCC3)C2c2ccc(F)cc2)cc1 (stereo unspecified)	839
CCc1ccccc1NC(=O)C1CCN(S(C)(=O)=O)c2ccccc2O1 (stereo unspecified)	912
Fc1ccc(C(OCCN2CCN(CCCc3ccccc3)CC2)c2ccc(F)cc2)cc1	957
COc1ncc(C(=O)NCc2ccccc2F)cn1	680
CCC(C(=O)Nc1cc(-c2cn3cccnc3n2)ccc1C)c1ccccc1 (stereo unspecified)	680
CC1(C(=O)NCc2ccc(F)cc2)CN(S(=O)(=O)c2ccccc2)CC(=O)N1C1CCCCC1 (stereo unspecified)	1020
Cc1ccc(S(=O)(=O)N2CCC(n3cnc4c(C)cccc4c3=O)CC2)cc1	929
O=C(c1csc(-c2ccc(N3CCSCC3)nc2)n1)N1CCC2(CC1)OCCO2	822
CC(C)c1nc(NCc2ccc3c(c2)OCO3)ncc1C(=O)O	844
N#Cc1ccc(-c2nc(C3CC(=O)N(c4ccc(F)cc4)C3)no2)cc1 (stereo unspecified)	897
CCc1ccc(NC(=O)Cn2nc3cc(-c4ccccc4)nc(C)n3c2=O)cc1	899
Cc1nc(CCNS(=O)(=O)c2ccc(Oc3ccccc3)cc2)cs1	845
COc1cccc(-n2c(=O)c(C(=O)Nc3ccc(F)cc3Cl)c(O)c3cccnc32)c1	1290
CC(C)(C)NC(=O)NCCC1CCN(S(=O)(=O)c2ccccc2)CC1	822
Cc1ccc(-c2nc3sc(N4CCCCC4)nn3c2NC(=O)C2CCCO2)cc1 (stereo unspecified)	901
COc1cccc(C2c3c(oc4ccc(C)cc4c3=O)C(=O)N2CCCN2CCOCC2)c1OC (stereo unspecified)	808
O=C(NCc1ccco1)C1CCN(Cc2cc3ccccc3n2Cc2ccccc2)CC1	747
Cc1cc(C)cc(-n2ncc3c(N4CCN(CCO)CC4)ncnc32)c1	649
COc1cccc(CNC(=O)c2nsc(C(=O)N3CCN(c4ccccn4)CC3)c2N)c1	660

Other lines, results leading:

RP-LC retention time [s]	Compound
1170	COc1ccc(NC(=O)c2nc(C3CCC3)oc2C)cc1C(F)(F)F
1020	CCC(C)NC(=O)C1CCN(S(=O)(=O)c2cc(-c3noc(C(C)C)n3)sc2C)CC1 (stereo unspecified)
674	CCCn1cc(CNC(=O)CN2CCN(Cc3ccc(F)cc3)C2=O)c(C)n1
838	COCc1cc(=O)n(CC(=O)Nc2cc(F)ccc2F)c(N2CCOCC2)n1
838	CC1CCCN(c2nn3c(C(=O)NCCc4c[nH]c5ccccc45)cc(=O)nc3s2)C1 (stereo unspecified)
671	NC(=O)C1CCN(C(=O)CCc2nnc3c4cc(-c5ccc(Cl)cc5)nn4ccn23)CC1
678	Cc1noc2nc(C)n(CC(=O)NC3CCCC3)c(=O)c12
955	CCOC(=O)c1ccc(-c2c(C(=O)OCC)oc3cc(O)c(CC)cc3c2=O)o1
665	COc1ccc(OC)c(NC(=O)CCc2c(-c3ccc(F)cc3)nc3ccccn23)c1
1240	CCCOc1nc2ccccc2nc1N1CCCC(C(=O)NCc2ccccc2C)C1 (stereo unspecified)
600	CCOCC(=O)N1CC(c2nc(CCOC)no2)C1
857	CC1=C(c2ccccc2)S(=O)(=O)N=C1N1CCC(NC(=O)CCC(C)C)CC1
1060	O=C(NCCCc1ccccc1)C1CCN(S(=O)(=O)c2ccc(-c3noc(C4CC4)n3)cc2)CC1
